Assays:
24-hydroxylase gene = 24-hydroxylase gene expression (mRNA, RT-PCR) in Caco-2 cells; assay type: cell-based; settings: 72 hours, 1 mmol/L glucose 1-phosphate sodium salt or 10 nmol/L 1α,25-dihydroxyvitamin D, FIG. 2
From the text: (§1) As a target cell of 1α,25-dihydroxyvitamin D and a sugar-phosphate ester, Caco-2 cells (from Dainippon Pharmaceutical Co. Ltd.) were employed. Caco-2 cells are known to differentiate to epitherial-like cells of small intestine. The Caco-2 cells were suspended in culture medium (10% fetal calf serum, none essential amino acids for MEM, […]/MEM Earle) and added to an insert of a fibrillar collagen culture plate (from Becton Dickinson Inc.). To the plate also, the culture medium was added, and cultured according to a usual method. The media in the insert and the plate were renewed at a regular interval, and the culture was subjected to a test at 15 days of incubation.

CaT1 gene = CaT1 gene expression (mRNA, RT-PCR) in Caco-2 cells; assay type: cell-based; settings: 72 hours, 1 mmol/L glucose 1-phosphate sodium salt or 10 nmol/L 1α,25-dihydroxyvitamin D, FIG. 3
From the text: as §1

calbindin D9K = test: Intestinal calbindin D9K expression in aged rats (Western blotting); assay type: in vivo; settings: aged rats (9 month, male, SD-IGS), 1.9% by weight in feed for 10 days, compared to control group; FIG. 4
From the text: On 10 days after the test started, rats were made starved by fasting for all day and night, then the small intestines were taken out, followed by extraction, immediate opening of the intestinal canal and stripping off the epitherial mucous membrane to prepare protein extract samples according to the method described by H. J. Armbrecht et al. (Am. J. Physiol., 236(6), e769-e774, 1979). These samples were separated by SDS-PAGE, followed by transferring on PVDF membrane (IPVH, pore size of 0.45, Millipore) in accordance with a usual procedure and assaying of calbindin D9K by the Western blotting method. Rabbit anti-calbindin D9K antibody (from Research Diagnostic Inc.) as the primary antibody and HRP anti-rabbit IgG (Bio-Rad) as the secondary antibody were used, and detected using ECL Plus kit (Bio-Rad). The detected protein bands were further quantified using Scion Image-analyzing software (from Scion Corp.).

| Compound | gene expression of 24-hydroxylase (mRNA amount divided by housekeeping gene G3PDH) (24-hydroxylase gene) | gene expression of CaT1 (mRNA amount divided by housekeeping gene G3PDH) (CaT1 gene) | expression of calbindin D9K in small intestine (calbindin D9K) |
| --- | --- | --- | --- |
| 1α,25-dihydroxyvitamin D | significantly enhanced | significantly enhanced | – |
| O=P([O-])([O-])O[C@H]1O[C@H](CO)[C@@H](O)[C@H](O)[C@H]1O.[Na+].[Na+] [glucose 1-phosphate sodium salt] | – | – | significantly enhance |
